Laboratory results reported in ChEMBL document CHEMBL3769343, “Spiromastilactones: A new class of influenza virus inhibitors from deep-sea fungus” (Eur J Med Chem, 2016).
The source made the active and inactive calls. No cut-off for these calls is given here.

Assays:
Influenza A virus [1] = assay: Antiviral activity against Influenza A virus A/WSN/1933 (H1N1) infected in MDCK cells assessed as protection against virus induced cytopathic effect after 40 hrs by Celltiter-Glo assay; format: functional, organism-based
[2] = Cytotoxicity against MDCK cells after 40 hrs by Celltiter-Glo assay; format: cell-based, Canis lupus familiaris; conditions: dog
Influenza A virus [3] = assay: Antiviral activity against Influenza A virus A/WSN/33 (H1N1) infected in dog MDCK cells assessed as reduction in nucleoprotein level at 100 uM measured over 10 hrs by Western blot analysis relative to control; format: functional, organism-based; conditions: A/WSN/1933(H1N1)
Influenza A virus [4] = assay: Antiviral activity against Influenza A virus A/WSN/33 (H1N1) infected in dog MDCK cells assessed as reduction in nucleoprotein level at 100 uM measured over 2 hrs by Western blot analysis relative to control; format: functional, organism-based; conditions: A/WSN/1933(H1N1)
Influenza A virus [5] = assay: Antiviral activity against Influenza A virus A/WSN/33 (H1N1) infected in dog MDCK cells assessed as reduction in nucleoprotein level at 100 uM measured at 2 to 5 hrs by Western blot analysis relative to control; format: functional, organism-based; conditions: A/WSN/1933(H1N1)
Influenza A virus [6] = assay: Antiviral activity against Influenza A virus A/WSN/33 (H1N1) infected in dog MDCK cells assessed as reduction in nucleoprotein level at 100 uM measured at 5 to 8 hrs by Western blot analysis relative to control; format: functional, organism-based; conditions: A/WSN/1933(H1N1)
Influenza A virus [7] = assay: Antiviral activity against Influenza A virus A/WSN/33 (H1N1) infected in dog MDCK cells assessed as reduction in nucleoprotein level at 100 uM measured at 8 to 10 hrs by Western blot analysis relative to control; format: functional, organism-based; conditions: A/WSN/1933(H1N1)
Influenza A virus [8] = assay: Antiviral activity against Influenza A virus A/WSN/33 (H1N1) assessed as inhibition of viral infection in dog MDCK cells at 50 uM pretreated with virus for 30 mins followed by host cell inoculation for 1 hr measured after 36 hrs; format: functional; conditions: A/WSN/1933(H1N1)
Influenza A virus [9] = assay: Antiviral activity against Influenza A virus A/WSN/33 (H1N1) assessed as inhibition of viral infection in dog MDCK cells at 50 uM pretreated with cells for 30 mins followed by exposure to virus for 1 hr measured after 36 hrs; format: functional; conditions: A/WSN/1933(H1N1)
[10] = tested on: Influenza A virus (A/WSN/1933(H1N1)); assay: Inhibition of Influenza A virus A/WSN/33 (H1N1) HA1 protein assessed as inhibition of virus induced aggregation of chicken erythrocytes after 30 mins
[11] = tested on: Influenza A virus (A/WSN/1933(H1N1)); assay: Binding affinity to Influenza A virus A/WSN/33 (H1N1) HA1 protein by surface plasmon resonance assay
[12] = Binding affinity to Influenza A virus H3N2 HA3 protein by surface plasmon resonance assay
[13] = Binding affinity to influenza B virus HA1 protein by surface plasmon resonance assay
[14] = Inhibition of Influenza A virus A/WSN/33 (H1N1) HA1 protein by surface plasmon resonance assay; set-up: species or system Influenza A virus (A/WSN/1933(H1N1))
A549 = assay: Binding affinity to Influenza A virus A/WSN/33 (H1N1) HA1 protein assessed as inhibition of virus attachment to human A549 cells at 10 to 50 uM after 1 hr by DAPI staining based immunofluorescence microscopic analysis; format: cell-based; conditions: Influenza A virus (A/WSN/1933(H1N1))
HeLa = assay: Binding affinity to Influenza A virus A/WSN/33 (H1N1) HA2 protein assessed as polykaryon formation in human HeLa cells preincubated with test compound for 15 mins followed by further test compound addition at pH 4.9 for 15 mins by crystal violet staining-based microscopic analysis; format: cell-based; conditions: Influenza A virus (A/WSN/1933(H1N1))
[15] = Binding affinity to Influenza A virus A/WSN/33 (H1N1) HA1 protein assessed as decrease in protein affinity to sialic acid receptor by surface plasmon resonance assay (reference value: 70 nM); set-up: species or system Influenza A virus (A/WSN/1933(H1N1))
Influenza B virus = assay: Antiviral activity against influenza B virus B/SZ/155 infected in dog MDCK cells assessed as inhibition of virus induced cytopathic effect after 40 hrs by Cell-Titer-Glo assay; format: functional, organism-based; conditions: B/SZ/155, MDCK
Influenza A virus [16] = assay: Antiviral activity against Influenza A virus A/WSN/33 (H1N1) infected in human A549 cells assessed as inhibition of (-)vRNA production after 7 hrs by qRT-PCR analysis; format: functional, organism-based; conditions: A/WSN/1933(H1N1)
Influenza A virus [17] = assay: Antiviral activity against Influenza A virus A/WSN/33 (H1N1) infected in human A549 cells assessed as inhibition of (+)cRNA production after 7 hrs by qRT-PCR analysis; format: functional, organism-based; conditions: A/WSN/1933(H1N1)
Influenza A virus [18] = assay: Antiviral activity against Influenza A virus A/WSN/33 (H1N1) infected in human A549 cells assessed as inhibition of mRNA of M1 segment production after 7 hrs by qRT-PCR analysis; format: functional, organism-based; conditions: A/WSN/1933(H1N1)
Influenza A virus [19] = assay: Antiviral activity against Influenza A virus A/WSN/33 (H1N1) infected in dog MDCK cells assessed as inhibition of viral nucleoprotein synthesis after 6 hrs by DAPI staining based immunofluorescence microscopy; format: functional, organism-based; conditions: A/WSN/1933(H1N1)
HEK-293T [20] = assay: Inhibition of Influenza A virus RNP infected in HEK293T cells assessed as decrease in ratio of Fluc to Rluc; format: cell-based; conditions: Influenza A virus (A/WSN/1933(H1N1))
HEK-293T [21] = assay: Effect on renilla luciferase expressed in HEK293T cells at 6.25 to 50 uM after 48 hrs; format: cell-based
Influenza A virus [22] = assay: Antiviral activity against Influenza A virus A/WSN/33 (H1N1) assessed as inhibition of viral infection in dog MDCK cells at 50 uM after 36 hrs; format: functional; conditions: A/WSN/1933(H1N1)
[23] = tested on: Influenza A virus (A/WSN/1933(H1N1)); assay: Binding affinity to Influenza A virus A/WSN/33 (H1N1) HA1 protein assessed as decrease in protein affinity to sialic acid receptor at 40 uM by surface plasmon resonance assay relative to control
[24] = tested on: Influenza A virus (A/WSN/1933(H1N1)); assay: Binding affinity to Influenza A virus A/WSN/33 (H1N1) HA1 protein assessed as decrease in protein affinity to sialic acid receptor at 20 uM by surface plasmon resonance assay
[25] = tested on: Influenza A virus (A/WSN/1933(H1N1)); assay: Binding affinity to Influenza A virus A/WSN/33 (H1N1) HA1 protein assessed as decrease in protein affinity to sialic acid receptor at 10 uM by surface plasmon resonance assay
[26] = tested on: Influenza A virus (A/WSN/1933(H1N1)); assay: Binding affinity to Influenza A virus A/WSN/33 (H1N1) HA1 protein assessed as decrease in protein affinity to sialic acid receptor at 5 uM by surface plasmon resonance assay
[27] = tested on: Influenza A virus (A/WSN/1933(H1N1)); assay: Binding affinity to Influenza A virus A/WSN/33 (H1N1) HA1 protein assessed as decrease in protein affinity to sialic acid receptor at 2.5 uM by surface plasmon resonance assay
[28] = tested on: Influenza A virus (A/WSN/1933(H1N1)); assay: Binding affinity to Influenza A virus A/WSN/33 (H1N1) HA1 protein assessed as decrease in protein affinity to sialic acid receptor at 1.25 uM by surface plasmon resonance assay
[29] = tested on: Influenza A virus (A/WSN/1933(H1N1)); assay: Binding affinity to Influenza A virus A/WSN/33 (H1N1) HA1 protein assessed as decrease in protein affinity to sialic acid receptor at 0.625 uM by surface plasmon resonance assay
[30] = tested on: Influenza A virus (A/WSN/1933(H1N1)); assay: Binding affinity to Influenza A virus A/WSN/33 (H1N1) HA1 protein assessed as decrease in protein affinity to sialic acid receptor by measuring association constant by surface plasmon resonance assay (reference value: 20810/s)
[31] = Binding affinity to Influenza A virus A/WSN/33 (H1N1) HA1 protein assessed as decrease in protein affinity to sialic acid receptor by measuring dissociation constant by surface plasmon resonance assay (reference value: 0.001473/Ms); set-up: species or system Influenza A virus (A/WSN/1933(H1N1))

CCCc1c(Cl)c(O)cc(OC)c1Oc1c(Cl)c(O)c(Cl)c2c1C(=O)O[C@@H]2CC
IC50 (Influenza A virus [1]): 6 µM | CC50 at 40 h [2]: > 100 µM | Activity (Influenza A virus [3]): Active | Activity (Influenza A virus [4]): Active | Activity (Influenza A virus [5]): Active | Activity (Influenza A virus [6]): Active | Activity (Influenza A virus [7]): inactive | inhibition at 50 µM (Influenza A virus [8]): 40% | inhibition at 50 µM (Influenza A virus [9]): 25% | inhibition [10]: Dose-dependent effect | Ka [11]: 2.3 ×10⁴ /Ms | Kd [12]: 18 µM | Kd [13]: 14 µM | IC50 [14]: 6 µM | inhibition (A549): Active | Activity (HeLa): inactive | Kd [15]: 0.547 µM | EC50 (Influenza B virus): 32 µM | inhibition (Influenza A virus [16]): Dose-dependent effect | inhibition (Influenza A virus [17]): Dose-dependent effect | inhibition (Influenza A virus [18]): Dose-dependent effect | inhibition (Influenza A virus [19]): Dose-dependent effect | inhibition (HEK-293T [20]): Active | Activity (HEK-293T [21]): inactive | inhibition at 50 µM (Influenza A virus [22]): 90% | fold change (FC) [23]: 8 | Activity [24]: 98.2 RU | Activity [25]: 44.8 RU | Activity [26]: 21 RU | Activity [27]: 10.3 RU | Activity [28]: 5.4 RU | Activity [29]: 3.3 RU | Ka [30]: 3420 s⁻¹ | Kd [31]: 0.00187 M⁻¹ s⁻¹

CCCc1c(Cl)c(OC)cc(O)c1Oc1c(Cl)c(O)c(Cl)c2c1C(=O)O[C@@H]2CC
IC50 (Influenza A virus [1]): > 50 µM | CC50 at 40 h [2]: > 50 µM

CCCc1cc(O)cc(O)c1Oc1c(Cl)c(O)c(Cl)c2c1C(=O)O[C@@H]2CC
IC50 (Influenza A virus [1]): > 100 µM | CC50 at 40 h [2]: > 100 µM

CCOC(=O)C1=C[C@@H](OC(CC)CC)[C@H](NC(C)=O)[C@@H](N)C1 [OSELTAMIVIR]
IC50 (Influenza A virus [1]): 10 µM | CC50 at 40 h [2]: > 100 µM | EC50 (Influenza B virus): > 83.2 µM

CCCc1c(Cl)c(O)c(Cl)c(OC)c1Oc1c(Cl)c(O)c(Cl)c2c1C(=O)O[C@@H]2CC
IC50 (Influenza A virus [1]): 22.6 µM | CC50 at 40 h [2]: > 100 µM

NC12CC3CC(CC(C3)C1)C2 [AMANTADINE]
IC50 (Influenza A virus [1]): 13 µM | CC50 at 40 h [2]: > 100 µM | EC50 (Influenza B virus): 144 µM

CCCc1cc(O)c(Cl)c(O)c1Oc1c(Cl)c(O)c(Cl)c2c1C(=O)O[C@@H]2CC
IC50 (Influenza A virus [1]): 30.7 µM | CC50 at 40 h [2]: > 100 µM | Ka [11]: 0.67 ×10⁴ /Ms | IC50 [14]: 30.7 µM

CCCc1c(Cl)c(OC)c(Cl)c(OC)c1Oc1c(Cl)c(O)c(Cl)c2c1C(=O)O[C@@H]2CC
IC50 (Influenza A virus [1]): > 50 µM | CC50 at 40 h [2]: > 50 µM

CCCc1cc(O)cc(O)c1C(=O)O
IC50 (Influenza A virus [1]): > 100 µM | CC50 at 40 h [2]: > 100 µM

CCCc1c(Cl)c(OC)cc(OC)c1Oc1c(Cl)c(O)c(Cl)c2c1C(=O)O[C@@H]2CC
IC50 (Influenza A virus [1]): 16.2 µM | CC50 at 40 h [2]: > 50 µM
